Experimental data published in patent US6737383B1, “Herbicidal oxadiazolidines” (priority 1999, dated 2004).

How the values were obtained:
[1] = test system: corn; experiment: Test B pre/postemergence corn; type: in vivo, Zea mays
Method in brief: (§1)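 Herbicidal effect was estimated by eye on a ten-point control scale after plants spent twelve to sixteen days in a greenhouse following soil or foliar treatment. Foliar sprays targeted plants at one to four leaves; all doses were formulated in a non-phytotoxic solvent with surfactant.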

[2] = test system: crabgrass; experiment: Test B pre/postemergence crabgrass; type: in vivo, Digitaria sanguinalis
Method in brief: as §1

[3] = test system: sugar beet; experiment: Test B pre/postemergence sugar beet; type: in vivo, Beta vulgaris
Method in brief: as §1

[4] = test system: rice; experiment: Test B flood test rice; type: in vivo, Oryza sativa
Method in brief: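 Flood test on plants grown to the 2-leaf stage; treated plants kept in greenhouse twelve to sixteen days, then visually rated against controls on a 0 (no effect) to 10 (complete control) scale.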

[5] = test system: bermuda-grass; experiment: Test D bermudagrass; type: in vivo, Cynodon dactylon; conditions: Preemergence, 0 to 100 scale
Method in brief: (§2)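 Scoring used a 0–100 visual injury scale, with 0 meaning no effect and 100 complete control, assessed 14–21 days after application alongside untreated pots. Preemergence treatments went onto sandy loam surfaces of separately potted seeds within a day of sowing.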

[6] = test system: common groundsel; experiment: Test D common groundsel; type: in vivo, Senecio vulgaris; conditions: Preemergence, 0 to 100 scale
Method in brief: as §2

[7] = test system: goosegrass; experiment: Test D goosegrass; type: in vivo, Eleusine indica; conditions: Preemergence, 0 to 100 scale
Method in brief: as §2

[8] = test system: pitted morningglory; experiment: Test D pitted morningglory; type: in vivo, Ipomoea lacunosa; conditions: Preemergence, 0 to 100 scale
Method in brief: as §2

[9] = test system: purple nutsedge; experiment: Test D purple nutsedge; type: in vivo, Cyperus rotundus; conditions: Preemergence, 0 to 100 scale
Method in brief: as §2

[10] = test system: surinam grass; experiment: Test D surinam grass; type: in vivo, Brachiaria decumbens; conditions: Preemergence, 0 to 100 scale
Method in brief: as §2

[11] = test system: winter wheat; experiment: Test E winter wheat; type: in vivo, Triticum aestivum; conditions: Postemergence; for Plant response rating, Wheat (winter): 0 to 100 scale
Method in brief: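 Compound formulated with surfactant in a non-phytotoxic solvent (postemergence: young 1- to 4-leaf plants); held in greenhouse approx. 21–28 days; visual assessment against untreated plants.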

[12] = test system: blackgrass; experiment: Test E blackgrass; type: in vivo, Alopecurus myosuroides; conditions: Preemergence
[13] = test system: green foxtail; experiment: Test E green foxtail; type: in vivo, Setaria viridis; conditions: Preemergence
[14] = test system: Italian ryegrass; experiment: Test E Italian ryegrass; type: in vivo, Lolium multiflorum; conditions: Preemergence
[15] = test system: winter wheat; experiment: Test E winter wheat; type: in vivo, Triticum aestivum; conditions: Preemergence
[16] = test system: wild oat; experiment: Test E wild oat; type: in vivo, Avena fatua; conditions: Preemergence
[17] = test system: winter barley; experiment: Test E winter barley; type: in vivo, Hordeum vulgare; conditions: Preemergence
[18] = Postemergence, Rate 62 g/ha, scale 0 to 10, 0 is no effect, 10 is complete control
[19] = Postemergence, Rate 250 g/ha, scale 0 to 10, 0 no effect, 10 complete control
[20] = Preemergence, Rate 62 g/ha, scale 0 to 10, 0 is no effect, 10 is complete control
[21] = Preemergence, Rate 125 g/ha, scale 0 to 10 (0 no effect, 10 complete control)
[22] = Preemergence, Rate 250 g/ha, scale of 0 to 10 where 0 is no effect and 10 is complete control
[23] = Preemergence, Rate 500 g/ha, scale 0 (no effect) to 10 (complete control)
[24] = Rate 125 g/ha, Postemergence, scale 0 to 10, 0 no effect, 10 complete control
[25] = Rate 500 g/ha, Postemergence, 0 to 10 scale (0 no effect, 10 complete control)
[26] = Rate 32 g/ha, 0 no injury, 100 complete control
[27] = Rate 64 g/ha, 0 no injury, 100 complete control
[28] = Rate 125 g/ha, 0 no injury, 100 complete control
[29] = Postemergence, Rate 125 g/ha, scale of 0 to 10 where 0 is no effect and 10 is complete control
[30] = Preemergence, Rate 62 g/ha, scale 0 to 10 (0 no effect, 10 complete control)
[31] = Preemergence, Rate 125 g/ha, 0 is no effect, 10 is complete control
[32] = Preemergence, Rate 250 g/ha, scale 0 to 10, 0 is no effect, 10 is complete control
[33] = Preemergence, Rate 500 g/ha, scale 0 to 10 (0 no effect, 10 complete control)
[34] = Rate 62 g/ha, Postemergence, scale of 0 to 10 where 0 is no effect and 10 is complete control
[35] = Rate 250 g/ha, Postemergence, scale 0 to 10, 0 is no effect, 10 is complete control
[36] = Rate 500 g/ha, Postemergence, scale 0 to 10
[37] = Rate 125 g/ha, 0 to 100 scale (0 no effect, 100 complete control)
[38] = Rate 500 g/ha, 0 to 100 scale where 0 is no effect and 100 is complete control

For `CCc1ccccc1-n1c(=O)on(C(=O)N(c2ccc(F)cc2)C(C)C)c1=O` [Compound 34], the “Corn plant response rating” value [1, 18] was 0, the “Corn plant response rating” value [1, 19] was 0 and the “Plant response rating, Corn” value [1, 20] was 0. For the same molecule, the “Plant response rating, Corn” value [1, 21] was 0, the “Plant response rating, Corn” value [1, 22] was 0 and the “Corn plant response rating” value [1, 23] was 0. The “Corn plant response rating” value [1, 24] was 0, the “Corn plant response rating” value [1, 25] was 0 and the “Crabgrass plant response rating” value [2, 18] was 0. The “Crabgrass plant response rating” value [2, 19] was 3, the “Plant response rating, Crabgrass” value [2, 20] was 7 and the “Plant response rating, Crabgrass” value [2, 21] was 7. The “Plant response rating, Crabgrass” value [2, 22] was 10, the “Crabgrass plant response rating” value [2, 23] was 10 and the “Crabgrass plant response rating” value [2, 24] was 0. For the same molecule, the “Crabgrass plant response rating” value [2, 25] was 9, the “Sugarbeets plant response rating” value [3, 18] was 0 and the “Sugarbeets plant response rating” value [3, 19] was 0. For the same molecule, the “Plant response rating, Sugarbeets” value [3, 20] was 0, the “Plant response rating, Sugarbeets” value [3, 21] was 0 and the “Plant response rating, Sugarbeets” value [3, 22] was 0. For the same molecule, the “Sugarbeets plant response rating” value [3, 23] was 4, the “Sugarbeets plant response rating” value [3, 24] was 0 and the “Rice plant response rating” value [4, 18] was 0. For the same molecule, the “Rice plant response rating” value ([4]; Rate 125 g/ha, Postemergence section (flood test species), scale 0 to 10, 0 no effect, 10 complete control) was 0, the “Rice plant response rating” value ([4]; Rate 500 g/ha, Postemergence section of Table B, 0 to 10 scale (0 no effect, 10 complete control)) was 0 and the “Rice plant response rating” value ([4]; flood test, listed under Postemergence, Rate 250 g/ha, scale 0 to 10, 0 no effect, 10 complete control) was 0. The “Plant response rating, Bermudagrass” value [5, 26] was 85, the “Plant response rating, Bermudagrass” value [5, 27] was 98 and the “Plant response rating, Bermudagrass” value [5, 28] was 100. The “Plant response rating, Bermudagrass” value ([5]; Rate 250 g/ha) was 100, the “Plant response rating, Com. groundsel” value [6, 26] was 0 and the “Plant response rating, Com. groundsel” value [6, 27] was 0. For the same molecule, the “Plant response rating, Com. groundsel” value [6, 28] was 0, the “Plant response rating, Com. groundsel” value ([6]; Rate 250 g/ha) was 0 and the “Plant response rating, Goosegrass” value [7, 26] was 0. The “Plant response rating, Goosegrass” value [7, 27] was 75, the “Plant response rating, Goosegrass” value [7, 28] was 85 and the “Plant response rating, Goosegrass” value ([7]; Rate 250 g/ha) was 98. The “Plant response rating, P. morninglory” value [8, 26] was 0, the “Plant response rating, P. morninglory” value [8, 27] was 0 and the “Plant response rating, P. morninglory” value [8, 28] was 0. The “Plant response rating, P. morninglory” value ([8]; Rate 250 g/ha) was 0, the “Plant response rating, Purple nutsedge” value [9, 26] was 0 and the “Purple nutsedge plant response rating” value [9, 27] was 0. For the same molecule, the “Purple nutsedge plant response rating” value [9, 28] was 0, the “Plant response rating, Purple nutsedge” value ([9]; Rate 250 g/ha) was 0 and the “Plant response rating Surinam grass” value [10, 26] was 0. The “Surinam grass plant response rating” value [10, 27] was 0, the “Surinam grass plant response rating” value [10, 28] was 0 and the “Plant response rating Surinam grass” value ([10]; Rate 250 g/ha) was 20.

With `Cc1ccc(N(C(=O)n2oc(=O)n(C(C)C)c2=O)C(C)C)cc1` [Compound 132] the “Corn plant response rating” value [1, 29] was 0, the “Corn plant response rating” value [1, 30] was 0 and the “Corn plant response rating (0 to 10 scale)” value [1, 31] was 0. For the same molecule, the “Corn plant response rating” value [1, 32] was 7, the “Corn plant response rating” value [1, 33] was 8 and the “Corn plant response rating” value [1, 34] was 0. The “Plant response rating, Corn” value [1, 35] was 4, the “Corn plant response rating” value [1, 36] was 6 and the “Crabgrass plant response rating” value [2, 29] was 7. The “Crabgrass plant response rating” value [2, 30] was 7, the “Crabgrass plant response rating (0 to 10 scale)” value [2, 31] was 7 and the “Crabgrass plant response rating” value [2, 32] was 9. For the same molecule, the “Crabgrass plant response rating” value [2, 33] was 9, the “Crabgrass plant response rating” value [2, 34] was 5 and the “Plant response rating, Crabgrass” value [2, 35] was 8. For the same molecule, the “Crabgrass plant response rating” value [2, 36] was 9, the “Sugarbeets plant response rating” value [3, 29] was 0 and the “Sugarbeets plant response rating” value [3, 30] was 2. For the same molecule, the “Sugarbeets plant response rating (0 to 10 scale)” value [3, 31] was 5, the “Sugarbeets plant response rating” value [3, 32] was 6 and the “Sugarbeets plant response rating” value [3, 33] was 8. For the same molecule, the “Sugarbeets plant response rating” value [3, 34] was 0, the “Plant response rating, Sugarbeets” value [3, 35] was 0 and the “Sugarbeets plant response rating” value [3, 36] was 2. The “Plant response rating, Bermudagrass” value [5, 27] was 100, the “Plant response rating, Com. groundsel” value [6, 27] was 0 and the “Plant response rating, Goosegrass” value [7, 27] was 98. The “Plant response rating, P. morninglory” value [8, 27] was 0, the “Purple nutsedge plant response rating” value [9, 27] was 0 and the “Surinam grass plant response rating” value [10, 27] was 30. For the same molecule, the “Plant response rating, Wheat (winter)” value ([11]; Rate 125 g/ha) was 20, the “Plant response rating, Wheat (winter)” value ([11]; Rate 500 g/ha, 0 no effect, 100 complete control) was 80 and the “Wheat (winter) plant response rating” value ([11]; Rate 250 g/ha, 0 to 100 scale where 0 is no effect and 100 is complete control) was 50. The “Plant response rating, Blackgrass” value [12, 37] was 20, the “Blackgrass plant response rating (0 to 100 scale)” value ([12]; Rate 250 g/ha) was 60 and the “Plant response rating, Blackgrass” value [12, 38] was 75. For the same molecule, the “Plant response rating, Green foxtail” value [13, 37] was 60, the “Green foxtail plant response rating (0 to 100 scale)” value ([13]; Rate 250 g/ha) was 98 and the “Plant response rating, Green foxtail” value [13, 38] was 100. The “Plant response rating, I. Ryegrass” value [14, 37] was 20, the “I. Ryegrass plant response rating (0 to 100 scale)” value ([14]; Rate 250 g/ha) was 100 and the “Plant response rating, I. Ryegrass” value [14, 38] was 100. The “Plant response rating, Wheat (winter)” value [15, 37] was 30, the “Wheat (winter) plant response rating (0 to 100 scale)” value ([15]; Rate 250 g/ha) was 40 and the “Plant response rating, Wheat (winter)” value [15, 38] was 60. For the same molecule, the “Plant response rating, Wild oat” value [16, 37] was 35, the “Wild oat plant response rating (0 to 100 scale)” value ([16]; Rate 250 g/ha) was 50 and the “Plant response rating, Wild oat” value [16, 38] was 65. The “Plant response rating, Barley (winter)” value [17, 37] was 10, the “Barley (winter) plant response rating (0 to 100 scale)” value ([17]; Rate 250 g/ha) was 50 and the “Plant response rating, Barley (winter)” value [17, 38] was 60.
